Assay [1] has as its system SU-DHL-6. In words: Antiproliferative activity against human SU-DHL-6 cells assessed as cell growth inhibition measured after 72 hrs by MTT assay. The format is functional, cell-based. The note with it: SU-DHL-6, 72 h. In general terms: Formazan colour is commonly taken as a measure of viable cells.
In assay [2] the target is Phosphatidylinositol 4,5-bisphosphate 3-kinase catalytic subunit beta isoform (Homo sapiens, UniProt P42338). As to the kind of experiment: Inhibition of N-terminal His6-tagged recombinant full length human PI3Kbeta expressed in baculovirus infected Sf21 insect cells at 1 uM by HTRF assay relative to control. (In general: Time-resolved FRET reads energy transfer from a long-lived donor to a nearby acceptor.)

For assay [3], the target named is Phosphatidylinositol 4,5-bisphosphate 3-kinase catalytic subunit gamma isoform (Homo sapiens, UniProt P48736). In words: Inhibition of N-terminal His6-tagged recombinant full length human PI3Kgamma expressed in baculovirus infected Sf21 insect cells at 0.1 uM by HTRF assay relative to control.
Assay [4] deals with Phosphatidylinositol 4,5-bisphosphate 3-kinase catalytic subunit alpha isoform (Homo sapiens, UniProt P42336). As to the kind of experiment: Inhibition of N-terminal His6-tagged recombinant full length human PI3Kalpha expressed in baculovirus infected Sf21 insect cells at 1 uM by HTRF assay relative to control.
Assay [5] has as its system SUD4. In words: Antiproliferative activity against human SU-DHL-4 cells assessed as cell growth inhibition measured after 72 hrs by MTT assay. The class given is functional, cell-based. The note with it: SU-DHL-4, 72 h.
Assay [6] has as its target T1, Phosphatidylinositol 4,5-bisphosphate 3-kinase catalytic subunit delta isoform (Homo sapiens) (UniProt O00329).
T1 sequence (whole entry): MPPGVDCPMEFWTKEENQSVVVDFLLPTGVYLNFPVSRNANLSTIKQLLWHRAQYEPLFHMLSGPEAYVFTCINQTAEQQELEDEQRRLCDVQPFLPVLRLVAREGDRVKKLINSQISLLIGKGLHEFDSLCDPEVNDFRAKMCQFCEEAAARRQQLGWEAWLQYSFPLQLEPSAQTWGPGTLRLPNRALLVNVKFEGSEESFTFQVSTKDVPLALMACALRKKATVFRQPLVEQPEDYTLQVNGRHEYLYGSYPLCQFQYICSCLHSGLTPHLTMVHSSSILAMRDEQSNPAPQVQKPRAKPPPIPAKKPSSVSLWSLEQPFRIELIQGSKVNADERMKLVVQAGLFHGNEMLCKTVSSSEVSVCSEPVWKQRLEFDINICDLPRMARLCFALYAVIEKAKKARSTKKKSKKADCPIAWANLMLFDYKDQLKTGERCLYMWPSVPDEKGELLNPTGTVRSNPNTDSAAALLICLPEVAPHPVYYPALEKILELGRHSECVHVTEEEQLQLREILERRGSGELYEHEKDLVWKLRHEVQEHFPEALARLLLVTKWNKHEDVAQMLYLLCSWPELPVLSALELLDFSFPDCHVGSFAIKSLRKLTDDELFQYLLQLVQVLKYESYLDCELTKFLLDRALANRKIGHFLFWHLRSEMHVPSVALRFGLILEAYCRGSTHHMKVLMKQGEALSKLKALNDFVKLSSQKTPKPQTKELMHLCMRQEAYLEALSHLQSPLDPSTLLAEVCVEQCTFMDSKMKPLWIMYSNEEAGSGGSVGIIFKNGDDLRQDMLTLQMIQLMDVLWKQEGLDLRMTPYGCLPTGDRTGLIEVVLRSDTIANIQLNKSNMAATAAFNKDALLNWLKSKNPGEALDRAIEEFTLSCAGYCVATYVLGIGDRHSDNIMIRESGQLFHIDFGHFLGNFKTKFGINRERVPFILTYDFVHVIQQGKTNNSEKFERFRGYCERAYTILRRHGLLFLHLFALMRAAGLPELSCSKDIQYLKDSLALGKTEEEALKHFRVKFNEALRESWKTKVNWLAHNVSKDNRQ
In words: Inhibition of N-terminal His6-tagged recombinant full length human PI3Kdelta expressed in baculovirus infected Sf21 insect cells at 0.1 uM by HTRF assay relative to control.

Assay [7] has as its system DOHH-2. In words: Antiproliferative activity against human DOHH-2 cells assessed as cell growth inhibition measured after 72 hrs by MTT assay. The format is functional, cell-based. The note with it: DOHH-2, 72 h.

Phosphatidylinositol 4,5-bisphosphate 3-kinase catalytic subunit gamma isoform, sequence (P48736 whole entry, looked up, canonical isoform): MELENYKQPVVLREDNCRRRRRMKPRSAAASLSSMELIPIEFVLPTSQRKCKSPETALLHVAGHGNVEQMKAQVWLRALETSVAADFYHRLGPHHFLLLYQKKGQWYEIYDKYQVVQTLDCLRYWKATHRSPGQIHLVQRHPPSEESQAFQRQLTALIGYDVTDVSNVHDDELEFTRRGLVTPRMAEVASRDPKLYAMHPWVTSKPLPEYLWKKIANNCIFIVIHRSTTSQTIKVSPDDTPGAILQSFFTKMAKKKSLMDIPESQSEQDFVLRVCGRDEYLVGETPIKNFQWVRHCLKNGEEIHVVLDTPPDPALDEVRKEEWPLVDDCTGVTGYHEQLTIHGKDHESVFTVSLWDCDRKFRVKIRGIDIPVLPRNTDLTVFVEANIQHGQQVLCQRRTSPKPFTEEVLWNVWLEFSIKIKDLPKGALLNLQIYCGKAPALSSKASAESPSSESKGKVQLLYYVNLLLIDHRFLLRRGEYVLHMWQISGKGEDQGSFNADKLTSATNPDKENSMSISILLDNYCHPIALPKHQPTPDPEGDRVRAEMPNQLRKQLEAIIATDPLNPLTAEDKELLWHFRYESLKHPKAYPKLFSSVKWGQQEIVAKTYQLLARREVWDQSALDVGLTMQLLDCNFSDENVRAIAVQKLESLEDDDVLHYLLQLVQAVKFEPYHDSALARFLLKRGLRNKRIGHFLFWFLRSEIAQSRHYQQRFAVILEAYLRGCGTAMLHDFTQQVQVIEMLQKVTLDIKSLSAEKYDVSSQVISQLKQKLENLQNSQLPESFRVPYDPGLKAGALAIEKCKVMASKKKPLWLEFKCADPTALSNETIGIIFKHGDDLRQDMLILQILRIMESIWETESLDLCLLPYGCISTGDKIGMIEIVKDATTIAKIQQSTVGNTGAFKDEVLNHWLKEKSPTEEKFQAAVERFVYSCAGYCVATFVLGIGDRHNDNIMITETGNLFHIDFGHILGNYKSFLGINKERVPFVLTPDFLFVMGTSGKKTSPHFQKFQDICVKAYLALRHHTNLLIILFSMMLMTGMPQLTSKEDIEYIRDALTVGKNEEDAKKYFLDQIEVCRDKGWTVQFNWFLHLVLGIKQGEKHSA
Phosphatidylinositol 4,5-bisphosphate 3-kinase catalytic subunit alpha isoform, sequence (P42336 whole entry, canonical isoform): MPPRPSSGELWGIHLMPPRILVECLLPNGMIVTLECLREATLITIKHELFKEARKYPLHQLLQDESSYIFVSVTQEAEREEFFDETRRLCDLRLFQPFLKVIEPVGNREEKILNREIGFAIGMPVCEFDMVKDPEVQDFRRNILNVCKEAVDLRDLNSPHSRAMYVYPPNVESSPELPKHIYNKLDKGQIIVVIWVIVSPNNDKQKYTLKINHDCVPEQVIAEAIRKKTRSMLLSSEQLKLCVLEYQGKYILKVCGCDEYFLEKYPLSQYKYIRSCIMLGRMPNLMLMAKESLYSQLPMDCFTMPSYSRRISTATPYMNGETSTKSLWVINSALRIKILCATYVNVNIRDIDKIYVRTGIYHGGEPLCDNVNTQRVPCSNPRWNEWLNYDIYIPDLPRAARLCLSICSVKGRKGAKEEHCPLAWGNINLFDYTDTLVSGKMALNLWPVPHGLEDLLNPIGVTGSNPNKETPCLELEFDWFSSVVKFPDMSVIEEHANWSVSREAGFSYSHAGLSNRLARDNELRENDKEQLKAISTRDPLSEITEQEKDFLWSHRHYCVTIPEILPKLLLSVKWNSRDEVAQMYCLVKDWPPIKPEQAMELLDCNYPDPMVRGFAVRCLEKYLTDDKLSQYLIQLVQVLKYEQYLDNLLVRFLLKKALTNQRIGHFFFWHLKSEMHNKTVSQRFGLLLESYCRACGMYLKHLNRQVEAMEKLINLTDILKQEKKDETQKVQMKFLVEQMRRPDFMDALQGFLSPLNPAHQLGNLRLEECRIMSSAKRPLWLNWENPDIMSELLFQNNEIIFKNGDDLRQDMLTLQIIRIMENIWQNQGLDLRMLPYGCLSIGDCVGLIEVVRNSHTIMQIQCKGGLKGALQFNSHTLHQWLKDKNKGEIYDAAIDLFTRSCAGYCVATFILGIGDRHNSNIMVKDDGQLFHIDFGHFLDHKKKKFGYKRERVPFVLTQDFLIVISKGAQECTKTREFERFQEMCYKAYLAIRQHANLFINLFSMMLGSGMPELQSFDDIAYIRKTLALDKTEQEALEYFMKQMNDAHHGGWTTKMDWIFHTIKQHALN
Phosphatidylinositol 4,5-bisphosphate 3-kinase catalytic subunit beta isoform, sequence (P42338 whole entry, looked up, canonical isoform): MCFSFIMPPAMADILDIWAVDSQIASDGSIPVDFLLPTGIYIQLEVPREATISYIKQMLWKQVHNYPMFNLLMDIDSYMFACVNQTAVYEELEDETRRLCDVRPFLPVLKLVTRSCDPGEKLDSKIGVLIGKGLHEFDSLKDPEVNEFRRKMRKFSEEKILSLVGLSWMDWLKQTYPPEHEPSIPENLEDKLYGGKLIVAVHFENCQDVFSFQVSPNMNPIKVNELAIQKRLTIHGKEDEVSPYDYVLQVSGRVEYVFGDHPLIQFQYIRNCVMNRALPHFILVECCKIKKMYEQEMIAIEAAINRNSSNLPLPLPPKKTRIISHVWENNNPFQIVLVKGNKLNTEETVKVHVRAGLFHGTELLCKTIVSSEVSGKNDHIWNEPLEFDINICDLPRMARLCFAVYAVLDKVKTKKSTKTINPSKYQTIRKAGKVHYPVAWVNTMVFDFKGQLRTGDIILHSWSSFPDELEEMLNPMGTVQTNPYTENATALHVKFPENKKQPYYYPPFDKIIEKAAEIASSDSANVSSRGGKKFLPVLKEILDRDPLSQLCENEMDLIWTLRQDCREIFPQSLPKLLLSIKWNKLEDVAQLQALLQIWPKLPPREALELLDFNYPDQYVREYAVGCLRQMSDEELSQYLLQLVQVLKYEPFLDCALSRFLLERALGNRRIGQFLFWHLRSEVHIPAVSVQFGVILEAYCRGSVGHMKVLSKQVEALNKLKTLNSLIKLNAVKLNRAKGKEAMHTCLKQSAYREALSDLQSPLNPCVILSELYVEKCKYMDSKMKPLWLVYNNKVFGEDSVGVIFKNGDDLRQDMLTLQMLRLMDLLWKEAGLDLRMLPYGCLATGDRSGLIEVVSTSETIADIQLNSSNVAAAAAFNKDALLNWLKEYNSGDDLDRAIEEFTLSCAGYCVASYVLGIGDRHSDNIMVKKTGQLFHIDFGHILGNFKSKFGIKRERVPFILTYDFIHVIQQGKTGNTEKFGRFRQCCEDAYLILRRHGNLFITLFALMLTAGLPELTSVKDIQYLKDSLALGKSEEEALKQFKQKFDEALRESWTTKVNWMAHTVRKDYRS

For the molecule `COc1ccc(C#Cc2cccc3nc([C@@H]4CC[C@H](C)N4c4nc(N)nc(N)c4C#N)n(-c4ccccc4)c(=O)c23)cc1`, the IC50 in assay [1] stood at 1.04 µM; in assay [5], 1.05 µM; in assay [7], 3.98 µM. For the same molecule, the inhibition in assay [2] came out at 62%; in assay [3], 83%; in assay [4] it was 25%; in assay [6] it was 43%.

Take `Cc1cccc(C#Cc2cccc3nc([C@@H]4CC[C@H](C)N4c4nc(N)nc(N)c4C#N)n(-c4ccccc4)c(=O)c23)c1`: the IC50 in assay [1] was determined as 2.62 µM; in assay [5] it was 3.31 µM; in assay [7], 4.13 µM. The inhibition in assay [2] amounted to 69%; in assay [3], 83%; in assay [4], 35%; in assay [6], 64%.

With `COc1cncc(-c2cccc3nc([C@@H]4CC[C@H](C)N4c4nc(N)nc(N)c4C#N)n(-c4cccnc4)c(=O)c23)c1`, the results for the IC50 in assay [1], in assay [5] and in assay [7] were 0.15 µM, 0.59 µM and 0.81 µM, respectively. Besides, the inhibition in assay [2] is 54%; in assay [3] it was 23%; in assay [4], 10%; in assay [6] it was 8%.

For the molecule `Cc1ccccc1C#Cc1cccc2nc([C@@H]3CC[C@H](C)N3c3nc(N)nc(N)c3C#N)n(-c3ccccc3)c(=O)c12`, the half-maximal inhibitory concentration (IC50) was 2.47 µM in assay [1], 3.58 µM in assay [5] and 0.76 µM in assay [7]. Also, the inhibition in assay [2] was found to be 78%; in assay [3] it was 65%; in assay [4], 23%; in assay [6] it was 62%.

As to `C[C@H]1CC[C@@H](c2nc3cc(F)ccc3c(=O)n2-c2cccnc2)N1c1nc(N)nc(N)c1C#N`, the IC50 was determined as 1.71 µM in assay [1], 0.58 µM in assay [5] and 0.57 µM in assay [7]. Besides, the inhibition turned out to be 44% in assay [2], 70% in assay [3], 39% in assay [4] and 7% in assay [6].

Consider `C[C@H]1CC[C@@H](c2nc3cccc(-c4cnn(C5CC5)c4)c3c(=O)n2-c2cccc(F)c2)N1c1nc(N)nc(N)c1C#N`, for which the IC50 came out at 0.25 µM in assay [1], 0.66 µM in assay [5] and 0.97 µM in assay [7]. Also, the inhibition is 59% in assay [2], 29% in assay [3], 25% in assay [4] and 16% in assay [6].

In the case of `C[C@H]1CC[C@@H](c2nc3cccc(-c4cnn(C5CC5)c4)c3c(=O)n2-c2cccnc2)N1c1nc(N)nc(N)c1C#N`, the IC50 in assay [1] turned out to be 0.48 µM; in assay [5], 0.7 µM; in assay [7], 2.13 µM. Also, the inhibition in assay [2] came to 63%; in assay [3], 34%; in assay [4], 31%; in assay [6], 21%.

Consider `COc1ccc(-c2cccc3nc([C@@H]4CC[C@H](C)N4c4nc(N)nc(N)c4C#N)n(-c4ccccc4)c(=O)c23)cn1`, for which the IC50 in assay [1] was 0.39 µM; in assay [5], 0.6 µM; in assay [7] it was 0.63 µM. The inhibition in assay [2] amounted to 77%; in assay [3], 29%; in assay [4], 14%.

Take `Cc1cccc2nc([C@@H]3CC[C@H](C)N3c3nc(N)nc(N)c3C#N)n(-c3cccnc3)c(=O)c12`: the IC50 in assay [1] came to 0.23 µM; in assay [5], 0.05 µM; in assay [7] it was 0.13 µM. The inhibition in assay [2] is -3%; in assay [3] it was 21%; in assay [4], 20%; in assay [6] it was -2%.

On to `C[C@H]1CC[C@@H](c2nc3cccc(C#Cc4ccccc4)c3c(=O)n2-c2ccccc2)N1c1nc(N)nc(N)c1C#N`, for which the IC50 was 0.4 µM in assay [1], 0.67 µM in assay [5] and 1.84 µM in assay [7]. For the same molecule, the inhibition in assay [2] is 11%; in assay [3], 40%; in assay [4], 22%; in assay [6], -3%.

As for `C[C@H]1CC[C@@H](c2nc3cccc(-c4cnn(C(F)F)c4)c3c(=O)n2-c2ccccc2)N1c1nc(N)nc(N)c1C#N`, the IC50 in assay [1] was 0.47 µM; in assay [5], 0.33 µM; in assay [7], 0.67 µM. The inhibition in assay [2] was 46%; in assay [3], 20%; in assay [4] it was 26%.

With `C[C@H]1CC[C@@H](c2nc3ccc(F)cc3c(=O)n2-c2cccnc2)N1c1nc(N)nc(N)c1C#N`, the figures for the IC50 in assay [1], in assay [5] and in assay [7] were 2.66 µM, 1.22 µM and 1.89 µM, respectively. The inhibition in assay [2] was determined as 98%; in assay [3], 91%; in assay [4], 63%; in assay [6], 43%.

With `C[C@H]1CC[C@@H](c2nc3c(F)cccc3c(=O)n2-c2cccnc2)N1c1nc(N)nc(N)c1C#N`, the IC50 in assay [1] came to 0.92 µM; in assay [5] it was 0.62 µM; in assay [7] it was 0.44 µM. Also, the inhibition in assay [2] worked out at 23%; in assay [3] it was 52%; in assay [4], 30%; in assay [6], 6%.

For `Cc1ccc(C#Cc2cccc3nc([C@@H]4CC[C@H](C)N4c4nc(N)nc(N)c4C#N)n(-c4ccccc4)c(=O)c23)cc1`, the IC50 is 1.72 µM in assay [1], 1.23 µM in assay [5] and 0.68 µM in assay [7]. The inhibition in assay [2] was determined as 78%; in assay [3], 80%; in assay [4], 35%; in assay [6] it was 56%.

Turning to `C[C@H]1CC[C@@H](c2nc3ccc(Cl)cc3c(=O)n2-c2cccnc2)N1c1nc(N)nc(N)c1C#N`, the results for the IC50 in assay [1], in assay [5] and in assay [7] were 0.77 µM, 0.9 µM and 1.05 µM, respectively. The inhibition in assay [2] stood at 100%; in assay [3], 89%; in assay [4], 56%; in assay [6] it was 89%.

As to `C[C@H]1CC[C@@H](c2nc3cccc(C#Cc4ccccn4)c3c(=O)n2-c2ccccc2)N1c1nc(N)nc(N)c1C#N`, the IC50 in assay [1] was 0.6 µM; in assay [5] it was 0.32 µM; in assay [7] it was 0.79 µM. The inhibition in assay [2] was found to be 41%; in assay [3], 29%; in assay [4] it was 11%; in assay [6], 6%.

`C[C@H](Nc1ncnc2nc[nH]c12)c1cc2cccc(Cl)c2c(=O)n1-c1ccccc1` [DUVELISIB]: the IC50 in assay [1] was 0.39 µM; in assay [5] it was 0.27 µM; in assay [7], 0.2 µM.

Consider `COc1ccc(-c2cccc3nc([C@@H]4CC[C@H](C)N4c4nc(N)nc(N)c4C#N)n(-c4ccccc4)c(=O)c23)cc1`, for which the IC50 in assay [1] is 0.7 µM; in assay [5] it was 0.89 µM; in assay [7], 1.14 µM. For the same molecule, the inhibition in assay [2] was determined as 44%; in assay [3] it was 41%; in assay [4] it was 5%.

As to `C[C@H]1CC[C@@H](c2nc3cccc(F)c3c(=O)n2-c2cccnc2)N1c1nc(N)nc(N)c1C#N`, the IC50 in assay [1] turned out to be 0.4 µM; in assay [5], 0.12 µM; in assay [7], 0.56 µM. Besides, the inhibition stood at 36% in assay [2], 67% in assay [3], 44% in assay [4] and 7% in assay [6].

On to `C[C@H]1CC[C@@H](c2nc3cccc(-c4cncnc4)c3c(=O)n2-c2ccccc2)N1c1nc(N)nc(N)c1C#N`, for which the IC50 in assay [1] turned out to be 0.29 µM; in assay [5], 0.32 µM; in assay [7] it was 1.94 µM. The inhibition was 49% in assay [2], 57% in assay [3] and 26% in assay [4].

Regarding `C[C@H]1CC[C@@H](c2nc3cccc(C#Cc4ccsc4)c3c(=O)n2-c2ccccc2)N1c1nc(N)nc(N)c1C#N`, the IC50 in assay [1] is 0.52 µM; in assay [5], 0.54 µM; in assay [7] it was 0.65 µM. The inhibition in assay [2] is 15%; in assay [3] it was 49%; in assay [4] it was -2%; in assay [6] it was 5%.

The term IC50 denotes the midpoint of a concentration-inhibition curve. As usually defined, the inhibition is the relative decrease from the control value, in per cent.
